# Results from publication PMC5341070, “Small molecule inhibitors block Gas6-inducible TAM activation and tumorigenicity” (Scientific Reports, 2017).
# What was measured:
# KIT = KIT (Homo sapiens, UniProt P10721); experiment: biochemical; set-up: KINOMEscan (DiscoverX) competition binding screen of 97 human kinases, percent of control at 10 uM; details: binding competition, % of control; read-out: RU-301 %Ctrl @ 10000nM
# Procedure: (§1) The KINOMEscan profiling of the inhibitors were performed as per directions by the manufacturer (DiscoverX) against a panel of human protein kinases.
# ABL1-phosphorylated = target: T1, ABL1-phosphorylated (Homo sapiens, UniProt P00519); experiment: biochemical; set-up: KINOMEscan (DiscoverX) competition binding screen of 97 human kinases, percent of control at 10 uM; details: binding competition, % of control; read-out: RU-301 %Ctrl @ 10000nM
# T1 construct: phosphorylated
# Procedure: as §1
# FLT3 [1] = target: FLT3 (Homo sapiens, UniProt P36888); experiment: biochemical; set-up: KINOMEscan (DiscoverX) competition binding screen of 97 human kinases, percent of control at 10 uM; details: binding competition, % of control; read-out: RU-301 %Ctrl @ 10000nM
# Procedure: as §1
# Target sequence in this assay (P36888 whole entry, the tested form may be a part): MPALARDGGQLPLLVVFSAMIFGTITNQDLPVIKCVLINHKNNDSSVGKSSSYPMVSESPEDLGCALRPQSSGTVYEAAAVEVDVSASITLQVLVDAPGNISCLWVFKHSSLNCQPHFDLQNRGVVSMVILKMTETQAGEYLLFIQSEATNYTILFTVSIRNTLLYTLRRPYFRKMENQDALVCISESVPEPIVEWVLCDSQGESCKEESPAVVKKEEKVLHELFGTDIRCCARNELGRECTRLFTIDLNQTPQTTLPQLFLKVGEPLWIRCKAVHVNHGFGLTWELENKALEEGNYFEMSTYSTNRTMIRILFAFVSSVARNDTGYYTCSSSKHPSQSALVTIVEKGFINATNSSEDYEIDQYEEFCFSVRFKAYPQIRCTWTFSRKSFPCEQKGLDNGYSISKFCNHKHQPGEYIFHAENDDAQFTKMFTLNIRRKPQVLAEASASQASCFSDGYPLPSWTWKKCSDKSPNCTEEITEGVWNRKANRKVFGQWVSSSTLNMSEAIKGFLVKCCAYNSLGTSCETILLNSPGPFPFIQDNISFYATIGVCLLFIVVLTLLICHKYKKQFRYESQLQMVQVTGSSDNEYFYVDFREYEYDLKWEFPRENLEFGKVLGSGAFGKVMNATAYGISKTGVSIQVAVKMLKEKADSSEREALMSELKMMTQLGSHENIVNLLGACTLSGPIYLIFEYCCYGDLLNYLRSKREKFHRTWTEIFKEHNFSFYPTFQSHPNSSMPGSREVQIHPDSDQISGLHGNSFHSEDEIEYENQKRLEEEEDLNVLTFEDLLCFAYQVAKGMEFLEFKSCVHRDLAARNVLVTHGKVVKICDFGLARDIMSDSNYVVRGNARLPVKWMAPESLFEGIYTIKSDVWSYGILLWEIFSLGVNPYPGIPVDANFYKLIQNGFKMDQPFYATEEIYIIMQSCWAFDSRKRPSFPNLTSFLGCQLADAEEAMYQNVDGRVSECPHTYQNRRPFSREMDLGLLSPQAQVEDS
# AXL [2] = target: AXL (Homo sapiens, UniProt P30530); experiment: biochemical; set-up: KINOMEscan (DiscoverX) competition binding screen of 97 human kinases, percent of control at 10 uM; details: binding competition, % of control; read-out: RU-301 %Ctrl @ 10000nM
# Procedure: as §1
# Target sequence in this assay (P30530 whole entry): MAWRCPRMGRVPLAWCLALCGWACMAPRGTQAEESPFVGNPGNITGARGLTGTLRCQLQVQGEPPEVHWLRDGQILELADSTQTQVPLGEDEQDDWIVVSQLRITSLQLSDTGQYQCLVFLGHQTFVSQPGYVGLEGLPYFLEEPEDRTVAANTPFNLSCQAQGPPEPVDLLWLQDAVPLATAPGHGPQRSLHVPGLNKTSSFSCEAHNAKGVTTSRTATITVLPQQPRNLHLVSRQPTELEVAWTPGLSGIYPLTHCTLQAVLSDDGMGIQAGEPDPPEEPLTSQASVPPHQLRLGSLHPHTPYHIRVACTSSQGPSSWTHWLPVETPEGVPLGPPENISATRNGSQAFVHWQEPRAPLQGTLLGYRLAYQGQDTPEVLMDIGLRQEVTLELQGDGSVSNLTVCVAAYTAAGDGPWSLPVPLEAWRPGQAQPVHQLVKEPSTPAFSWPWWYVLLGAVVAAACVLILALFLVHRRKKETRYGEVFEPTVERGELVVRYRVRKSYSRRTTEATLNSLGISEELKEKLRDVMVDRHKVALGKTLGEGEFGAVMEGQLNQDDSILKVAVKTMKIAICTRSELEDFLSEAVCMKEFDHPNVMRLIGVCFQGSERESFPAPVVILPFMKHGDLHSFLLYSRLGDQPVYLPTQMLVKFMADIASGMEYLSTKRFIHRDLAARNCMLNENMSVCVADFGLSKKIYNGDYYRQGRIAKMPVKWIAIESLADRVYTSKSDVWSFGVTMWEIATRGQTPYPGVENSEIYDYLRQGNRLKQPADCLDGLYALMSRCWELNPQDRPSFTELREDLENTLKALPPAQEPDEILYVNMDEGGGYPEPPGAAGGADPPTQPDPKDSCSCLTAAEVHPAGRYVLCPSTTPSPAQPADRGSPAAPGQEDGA
# Axl [3] = target: T2, Axl (Homo sapiens, UniProt P30530+Q14393); experiment: Gas6-induced hAxl/IFN-γR1 CHO reporter (pSTAT1) inhibition; sAxl-Gas6 pull-down partially inhibited; type: cell-based
# T2 construct: extracellular and trans-membrane domain of Axl fused to IFN-γR1 intracellular domain; with Gas6
# AXL [4] = target: AXL (Homo sapiens, UniProt P30530); experiment: biochemical; set-up: KINOMEscan (DiscoverX) competition binding screen of 97 human kinases, percent of control at 10 uM; details: binding competition, % of control; binder
# Procedure: as §1
# Target sequence in this assay (P30530 whole entry): as above
# Abl = target: T3, Abl (Homo sapiens, UniProt P00519); experiment: KINOMEscan profiling at […]; type: binding
# T3 construct: gene ABL1; kinase domain
# T3 sequence (P00519 242-493 limits assumed): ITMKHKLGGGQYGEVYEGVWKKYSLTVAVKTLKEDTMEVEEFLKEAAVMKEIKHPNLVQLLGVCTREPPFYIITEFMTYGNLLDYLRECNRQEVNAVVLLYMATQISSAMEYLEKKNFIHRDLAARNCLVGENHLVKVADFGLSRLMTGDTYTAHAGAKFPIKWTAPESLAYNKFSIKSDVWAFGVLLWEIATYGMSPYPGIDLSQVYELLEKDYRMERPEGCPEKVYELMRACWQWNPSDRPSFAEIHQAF
# RET = target: T4, RET (Homo sapiens, UniProt P07949); experiment: KINOMEscan profiling at […]; type: binding
# T4 construct: kinase domain
# T4 sequence (P07949 724-1016 limits assumed): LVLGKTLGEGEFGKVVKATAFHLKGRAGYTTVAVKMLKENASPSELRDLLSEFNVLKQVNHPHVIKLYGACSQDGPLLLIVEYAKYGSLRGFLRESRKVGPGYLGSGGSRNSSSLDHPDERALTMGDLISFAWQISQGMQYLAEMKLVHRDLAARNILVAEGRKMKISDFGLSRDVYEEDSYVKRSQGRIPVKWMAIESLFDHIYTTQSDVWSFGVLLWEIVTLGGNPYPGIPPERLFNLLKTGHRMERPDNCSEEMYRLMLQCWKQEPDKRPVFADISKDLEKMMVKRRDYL
# PDGFRB = PDGFRB (Homo sapiens, UniProt P09619); experiment: KINOMEscan profiling at […]; type: binding; set-up: gene PDGFRB; kinase domain
# Chain of PDGFRB (P09619 600-962 limits assumed): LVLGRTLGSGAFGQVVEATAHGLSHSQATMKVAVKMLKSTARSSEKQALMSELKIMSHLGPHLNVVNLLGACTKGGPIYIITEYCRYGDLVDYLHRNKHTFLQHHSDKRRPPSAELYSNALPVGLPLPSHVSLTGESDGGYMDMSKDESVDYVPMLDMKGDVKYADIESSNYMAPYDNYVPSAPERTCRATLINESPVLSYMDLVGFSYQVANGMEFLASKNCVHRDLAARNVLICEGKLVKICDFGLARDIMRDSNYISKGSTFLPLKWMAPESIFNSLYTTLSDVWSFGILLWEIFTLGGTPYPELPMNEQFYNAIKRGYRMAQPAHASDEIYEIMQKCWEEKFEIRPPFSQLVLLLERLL
# FLT3 [5] = target: T5, FLT3 (Homo sapiens, UniProt P36888); experiment: KINOMEscan profiling at […]; type: binding
# T5 construct: kinase domain
# T5 sequence (P36888 564-993 limits assumed): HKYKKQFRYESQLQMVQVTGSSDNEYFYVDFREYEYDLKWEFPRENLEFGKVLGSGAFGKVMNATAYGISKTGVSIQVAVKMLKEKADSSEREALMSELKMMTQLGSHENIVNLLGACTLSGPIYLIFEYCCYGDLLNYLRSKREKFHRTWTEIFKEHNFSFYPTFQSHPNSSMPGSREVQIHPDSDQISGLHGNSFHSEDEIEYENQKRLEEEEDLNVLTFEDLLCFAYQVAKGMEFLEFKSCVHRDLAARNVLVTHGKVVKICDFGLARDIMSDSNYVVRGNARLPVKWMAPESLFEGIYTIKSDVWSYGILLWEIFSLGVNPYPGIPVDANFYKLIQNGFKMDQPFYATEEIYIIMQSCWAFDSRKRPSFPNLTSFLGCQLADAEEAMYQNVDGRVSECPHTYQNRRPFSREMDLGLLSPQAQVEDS
# TIE2 = TIE2 (Homo sapiens, UniProt Q02763); experiment: KINOMEscan profiling at […]; type: binding; set-up: gene TEK; kinase domain
# Chain of TIE2 (Q02763 770-1124 limits assumed): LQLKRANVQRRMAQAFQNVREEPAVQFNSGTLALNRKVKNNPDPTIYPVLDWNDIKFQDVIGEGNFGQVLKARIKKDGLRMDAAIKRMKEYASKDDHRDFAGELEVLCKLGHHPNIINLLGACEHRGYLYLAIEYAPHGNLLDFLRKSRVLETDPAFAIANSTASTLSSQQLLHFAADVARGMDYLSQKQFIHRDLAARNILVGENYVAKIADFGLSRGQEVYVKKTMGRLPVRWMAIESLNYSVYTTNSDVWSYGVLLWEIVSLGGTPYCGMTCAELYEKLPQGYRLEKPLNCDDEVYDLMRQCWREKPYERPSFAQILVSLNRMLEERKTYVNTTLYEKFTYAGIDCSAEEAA
# Chain of KIT (P10721 whole entry): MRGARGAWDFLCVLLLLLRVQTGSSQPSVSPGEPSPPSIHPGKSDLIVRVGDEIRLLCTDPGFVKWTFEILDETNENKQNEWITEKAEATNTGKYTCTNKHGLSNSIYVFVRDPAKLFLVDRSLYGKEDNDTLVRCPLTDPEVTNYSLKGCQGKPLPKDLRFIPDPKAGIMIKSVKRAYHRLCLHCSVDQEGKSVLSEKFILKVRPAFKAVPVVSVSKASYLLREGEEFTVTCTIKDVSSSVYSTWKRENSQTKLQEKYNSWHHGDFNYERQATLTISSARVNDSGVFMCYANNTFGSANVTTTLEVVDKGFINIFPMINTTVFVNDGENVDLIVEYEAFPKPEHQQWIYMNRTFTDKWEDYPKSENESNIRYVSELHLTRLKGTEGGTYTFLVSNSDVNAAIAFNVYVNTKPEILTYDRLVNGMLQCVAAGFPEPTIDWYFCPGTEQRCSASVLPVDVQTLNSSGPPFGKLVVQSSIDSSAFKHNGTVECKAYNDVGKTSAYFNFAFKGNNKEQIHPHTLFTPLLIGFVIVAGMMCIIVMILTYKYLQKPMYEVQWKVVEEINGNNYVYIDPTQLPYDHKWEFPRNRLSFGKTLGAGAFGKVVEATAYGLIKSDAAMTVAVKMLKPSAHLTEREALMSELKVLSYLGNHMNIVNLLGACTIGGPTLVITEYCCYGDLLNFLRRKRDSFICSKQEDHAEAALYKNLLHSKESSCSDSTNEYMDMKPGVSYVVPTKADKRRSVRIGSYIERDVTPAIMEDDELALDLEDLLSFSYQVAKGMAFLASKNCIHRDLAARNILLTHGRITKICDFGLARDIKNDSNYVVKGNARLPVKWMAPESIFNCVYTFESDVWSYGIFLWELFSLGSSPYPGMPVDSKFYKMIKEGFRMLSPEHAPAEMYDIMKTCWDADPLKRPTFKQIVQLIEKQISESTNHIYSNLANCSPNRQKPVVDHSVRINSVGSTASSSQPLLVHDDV
remaining binding at 10 µM (KIT),remaining binding at 10 µM (ABL1-phosphorylated),remaining binding at 10 µM (FLT3 [1]),remaining binding at 10 µM (AXL [2]),IC50 (Axl [3]),R428 %Ctrl @ 10000nM (AXL [4]),Structure (SMILES),KINOMEscan profiling at 10 uM (Abl),KINOMEscan profiling at 10 uM (RET),KINOMEscan profiling at 10 uM (PDGFRB),KINOMEscan profiling at 10 uM (FLT3 [5]),KINOMEscan profiling at 10 uM (TIE2)
96%,81%,99%,89%,low micromolar,–,Cc1cc(CSc2ccccc2C(=O)NCCNc2ccc(C(F)(F)F)cc2[N+](=O)[O-])on1 [RU-301],–,–,–,–,–
–,–,–,–,–,0.1%,Nc1nc(Nc2ccc3c(c2)CC[C@@H](N2CCCC2)CC3)nn1-c1cc2c(nn1)-c1ccccc1CCC2 [R428],"R428 also bound to several other kinases, including Abl, Aurora kinases, KIT","R428 also bound to several other kinases, including Abl, Aurora kinases, KIT, PDGFR A and B, RET","R428 also bound to several other kinases, including Abl, Aurora kinases, KIT, PDGFR A and B","KIT, PDGFR A and B, RET, TIE2, VEGFR2, JAK2, JAK3 and FLT3 kinases","KIT, PDGFR A and B, RET, TIE2, VEGFR2, JAK2, JAK3 and FLT3 kinases"
